# In patent US4943574A, “(1H-azol-1-ylmethyl) substituted benzotriazole derivatives and pharmaceutical compositions containing them” (Janssen Pharmaceutica N.V., priority 1989, dated 1990):
# pIC50: −log10 of the molar value.
# Assays:
# aromatase [1] = details: reported in Biochemical Pharmacology, 34, 1087 (1985); cited from earlier work
# aromatase [2] = molecular target: T1, aromatase (Homo sapiens, UniProt P11511); test: biochemical; details: human placental microsomes, 30 min at 37° C., pH 7.4, 1,2[3H]androstenedione; read-out: IC50-values (concentration of the compound required to obtain 50% inhibition of the estrogen synthesis)
# T1 sequence (P11511 1-503): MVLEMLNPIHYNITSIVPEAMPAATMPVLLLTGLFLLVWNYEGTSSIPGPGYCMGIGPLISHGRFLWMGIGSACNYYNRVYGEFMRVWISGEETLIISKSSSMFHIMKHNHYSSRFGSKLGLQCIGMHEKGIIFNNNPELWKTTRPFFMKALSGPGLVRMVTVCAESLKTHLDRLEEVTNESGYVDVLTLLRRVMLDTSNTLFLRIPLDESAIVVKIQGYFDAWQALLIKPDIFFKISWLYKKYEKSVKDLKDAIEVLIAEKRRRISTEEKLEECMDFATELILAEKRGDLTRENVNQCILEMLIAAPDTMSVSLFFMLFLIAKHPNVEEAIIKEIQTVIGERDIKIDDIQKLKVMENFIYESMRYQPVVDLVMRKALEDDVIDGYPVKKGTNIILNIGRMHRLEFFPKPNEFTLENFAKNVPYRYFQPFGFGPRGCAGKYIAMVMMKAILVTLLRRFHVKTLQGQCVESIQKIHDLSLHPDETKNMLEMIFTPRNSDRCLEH
# Protocol: Human placental microsomes were diluted in potassium phosphate buffer (0.1M, pH 7.4) to give about 50% conversion of androgens to estrogens (protein content: about 0.5 mg). Four ml human placental microsomes were incubated in a final volume of 5 ml with 0.2 μCi1,2[3H]-androstenedione, 2 μg androstendione and 5 μl of test compound and/or dimethyl sulfoxide (DMSO). […] The reaction was initiated by the addition of androstenedione and proceeded for 30 min at 37° C. During the incubation period, the mixtures were gassed with air. In this assay, aromatization of androstenedione results in the production of [3H]-H2 O which is isolated by extracting the samples with chloroform to remove the free steroid.
# aromatase [3] = test: In vivo-inhibition of the aromatase activity (plasma estradiol in PMSG-injected immature female Wistar rats); parameters: species or system rat (immature female Wistar rats); details: 1 mg/kg oral gavage, two hours following administration, PMSG-injected immature female Wistar rats
# Protocol: Immature female Wistar rats weighing 120 g were injected subcutaneously with 200 I.U. of pregnant mare's serum gonadotropin (PMSG). […] Control animals received 20% polyethyleneglycol only. Two hours following drug or placebo administration the rats were killed by decapitation and trunk blood was collected on heparine. Plasma estradiol concentrations were measured by standard radio-immunological procedures.
pIC50 (aromatase [2]),Structure (SMILES),inhibition of the action of the enzyme aromatase (in words) (aromatase [1]),% recovery estradiol (plasma estradiol relative to the controls) (aromatase [3])
–,CC(=O)N1CCN(c2ccc(OCC3COC(Cn4ccnc4)(c4ccc(Cl)cc4Cl)O3)cc2)CC1 (centres unmarked) [ketoconazole],inhibit the action of the enzyme aromatase,–
–,Clc1ccccc1C(c1ccccc1)(c1ccccc1)n1ccnc1 [clotrimazole],inhibit the action of the enzyme aromatase,–
7.84,c1csc(Cn2nnc3ccc(Cn4ccnc4)cc32)c1 [Compound 111],–,19%
7.82,CCCn1nnc2ccc(Cn3ccnc3)cc21 [Compound 89],–,5%
8.04,BrCCOn1nnc2ccc(Cn3ccnc3)cc21 [Compound 204],–,19%
–,Clc1ccc(COC(Cn2ccnc2)c2ccc(Cl)cc2Cl)c(Cl)c1 (centres unmarked) [miconazole],inhibit the action of the enzyme aromatase,–
7.90,Clc1ccc(C(c2ccc3nnn(C4CCCCC4)c3c2)n2ccnc2)cc1 (centres unmarked) [Compound 117],–,9%
7.65,Cn1nnc2ccc(C(c3ccc(Cl)cc3)n3ccnc3)cc21 (centres unmarked) [Compound 30],–,7%
7.82,c1cn(Cc2ccc3nnn(CC4CC4)c3c2)cn1 [Compound 108],–,3%
7.57,CC(C)n1nnc2ccc(Cn3ccnc3)cc21 [Compound 87],–,5%
7.74,Cn1nnc2ccc(C(c3cccc(Br)c3)n3ccnc3)cc21 (centres unmarked) [Compound 50],–,1%
7.85,c1cn(Cc2ccc3nnn(C4CCCC4)c3c2)cn1 [Compound 107],–,6%
7.59,Cn1nnc2ccc(C(c3ccccc3)n3ccnc3)cc21 (centres unmarked) [Compound 7],–,7%
7.70,c1ccc2c(c1)CCCC2n1nnc2ccc(Cn3ccnc3)cc21 (centres unmarked) [Compound 105],–,14%
7.78,Cn1nnc2ccc(C(c3ccc(Cl)cc3)n3ccnc3)cc21 (centres unmarked) [Compound 48],–,6%
7.80,Cn1nnc2ccc(C(c3ccc(F)cc3)n3ccnc3)cc21 (centres unmarked) [Compound 29],–,7%
